# Results published in patent US20230086007A1, “USE OF DENATONIUM BENZOATE AS A SEED TREATMENT FOR CROPS AS BIRD AND/OR INSECT REPELLENT” (KWS SAAT SE & Co. KGaA, priority 2020, published 2023).
# “And” between values parts separate entries of the source, which are not always exact repeats. Equal entries are not always repeated.
# Columns and labels:
# [1] = tested on: corn seeds; experiment: Phytotoxicity: germination rate (KF) of treated corn seeds; settings: for ΔKF: vs no Bitrex
# Experimental: In order to evaluate the phytotoxicity of different corn seed treatments, safety tests were conducted. Germination rates of corn seeds treated with various concentrations of denatonium benzoate (Bitrex®) [in g per unit, where 1 unit is 50.000 seeds] were counted after five days at 25° C. Cold test germination rates (CT) were counted after 7 days at 10° C. and 5 days at 25° C. The treatments were compared to untreated seeds.
# KF=germination rates counted after 5 days at 25° C. and CT=cold test germination rates counted after 7 days at 10° C. and 5 days at 25° C.
# [2] = LC-MS-MS determination of Bitrex in leaf tissue of oilseed rape seedlings; format: in vivo, Brassica napus
# Text: Further experiments on system uptake of Bitrex have been conducted also on oilseed rape (Brassica napus). Seeds of Brassica napus have been treated with concentration of Bitrex from 0.15 g/unit to 75 g/unit. Seeds have been sown and leaf samples have been taken 6 days after emergence and 22 days after emergence. By means of Liquid Chromatography with tandem mass spectrometry (LC-MS-MS) as described above Bitrex amount in leaf tissue has been determined with 4 repetition per Bitrex concentration. Leave samples have been prepared as follows: Leaf material has been harvested, cut in small pieces and put in 3-5 ml ethanol. After 45 min vortexing, centrifuging and taking aliquot of 1 ml for further analysis.
# [3] = tested on: wireworm of genus Agriotes; experiment: Wireworm repellent pot assay on corn in climate chamber; format: in vivo; settings: climate chamber 18° C. day/12° C. night; eighteen days after sowing
# Experimental: The denatonium benzoate (Bitrex) was tested in concentrations of 0.5 g/unit (wherein 1 unit=50.000 seeds), 1 g/unit and 5 g/unit, either without any other plant protection product (variants 3 and 4) or with RedigoM (active ingredients 100 g/l Prothioconazole (PRO) and 20 g/l Metalaxyl (MTL); (variants 6-8). Sticker was always Sepiret 9290 red, whereby 30 ml/unit has been applied. Variant 1 is the negative control wherein no treatment of the seeds took place, variant 2 is another control only treated with the sticker. Variant 5 is RedigoM and sticker without Bitrex. Variants 9 and 10 serve as positive control. Beside RedigoM and the sticker, the seeds have been treated with either with Force 20 CS (active ingredient: tefluthrin (TEF); or with Poncho® 600 (active ingredient: clothianidin (CLO). Both Force 20 CS and Poncho® 600 are standard treatments against wireworm infestation. All testing were conducted on corn variety Amavit of KWS SAAT SE & Co. KGaA.
# Testing has been repeated in climate chambers in order to ensure high humidity and moderate temperatures which results in optimal environmental condition for the wireworm. Thereby, a high level of insect pressure on the seeded corn should be simulated. […]
# Eighteen days after sowing the plant biomass (Table 6) as well as seed damage (FIG. 4B; Table 6) were assessed.
# [4] = tested on: crows; settings: wheat seed treatment; cited from earlier work
# [5] = corn Amavit, chemical no, Bitrex 0.2 g/u
# [6] = corn Amavit, chemical no, Bitrex 0.5 g/u
# [7] = corn Amavit, chemical no, Bitrex 1.0 g/u
# [8] = corn Amavit, chemical no, Bitrex 2.0 g/u
# [9] = corn Amavit, chemical no, Bitrex 5.0 g/u
# [10] = corn Amavit, with MaximXL, Bitrex 0.2 g/u
# [11] = corn Amavit, with MaximXL, Bitrex 0.5 g/u
# [12] = corn Amavit, with MaximXL, Bitrex 1.0 g/u
# [13] = corn Amavit, with MaximXL, Bitrex 2.0 g/u
# [14] = corn Amavit, with MaximXL, Bitrex 5.0 g/u
# [15] = corn Amavit, with RedigoM, Bitrex 0.2 g/u
# [16] = corn Amavit, with RedigoM, Bitrex 0.5 g/u
# [17] = corn Amavit, with RedigoM, Bitrex 1.0 g/u
# [18] = corn Amavit, with RedigoM, Bitrex 2.0 g/u
# [19] = corn Amavit, with RedigoM, Bitrex 5.0 g/u
# [20] = corn KXB6432, chemical no, Bitrex 0.2 g/u
# [21] = corn KXB6432, chemical no, Bitrex 0.5 g/u
# [22] = corn KXB6432, chemical no, Bitrex 1.0 g/u
# [23] = corn KXB6432, chemical no, Bitrex 2.0 g/u
# [24] = corn KXB6432, chemical no, Bitrex 5.0 g/u
# [25] = corn KXB6432, with MaximXL, Bitrex 0.2 g/u
# [26] = corn KXB6432, with MaximXL, Bitrex 0.5 g/u
# [27] = corn KXB6432, with MaximXL, Bitrex 1.0 g/u
# [28] = corn KXB6432, with MaximXL, Bitrex 2.0 g/u
# [29] = corn KXB6432, with MaximXL, Bitrex 5.0 g/u
# [30] = corn KXB6432, with RedigoM, Bitrex 0.2 g/u
# [31] = corn KXB6432, with RedigoM, Bitrex 0.5 g/u
# [32] = corn KXB6432, with RedigoM, Bitrex 1.0 g/u
# [33] = corn KXB6432, with RedigoM, Bitrex 2.0 g/u
# [34] = corn KXB6432, with RedigoM, Bitrex 5.0 g/u
# [35] = ø of varieties and chemicals, Bitrex 0.2 g/u
# [36] = ø of varieties and chemicals, Bitrex 0.5 g/u
# [37] = ø of varieties and chemicals, Bitrex 1.0 g/u
# [38] = ø of varieties and chemicals, Bitrex 2.0 g/u
# [39] = ø of varieties and chemicals, Bitrex 5.0 g/u
# [40] = ø of varieties, chemical no, Bitrex 0.2 g/u
# [41] = ø of varieties, chemical no, Bitrex 0.5 g/u
# [42] = ø of varieties, chemical no, Bitrex 1.0 g/u
# [43] = ø of varieties, chemical no, Bitrex 2.0 g/u
# [44] = ø of varieties, chemical no, Bitrex 5.0 g/u
# [45] = ø of varieties, with MaximXL, Bitrex 0.2 g/u
# [46] = ø of varieties, with MaximXL, Bitrex 0.5 g/u
# [47] = ø of varieties, with MaximXL, Bitrex 1.0 g/u
# [48] = ø of varieties, with MaximXL, Bitrex 2.0 g/u
# [49] = ø of varieties, with MaximXL, Bitrex 5.0 g/u
# [50] = ø of varieties, with RedigoM, Bitrex 0.2 g/u
# [51] = ø of varieties, with RedigoM, Bitrex 0.5 g/u
# [52] = ø of varieties, with RedigoM, Bitrex 1.0 g/u
# [53] = ø of varieties, with RedigoM, Bitrex 2.0 g/u
# [54] = ø of varieties, with RedigoM, Bitrex 5.0 g/u
compound,measurement,setting,value
"CC[N+](CC)(CC(=O)Nc1c(C)cccc1C)Cc1ccccc1.O=C([O-])c1ccccc1 [Bitrex, N-Benzyl-2-(2,6-dimethylanilino)-N, N-diethyl-2-oxoethan-1-aminium benzoate]","KF germination rate, 5 days at 25° C.",[1]; [5],98.0%
same,"KF germination rate, 5 days at 25° C.",[1]; [6],96.5%
same,"KF germination rate, 5 days at 25° C.",[1]; [7],97.5%
same,"KF germination rate, 5 days at 25° C.",[1]; [8],97.0%
same,"KF germination rate, 5 days at 25° C.",[1]; [9],98.0%
same,"KF germination rate, 5 days at 25° C.",[1]; [10],98.0%
same,"KF germination rate, 5 days at 25° C.",[1]; [11],98.0%
same,"KF germination rate, 5 days at 25° C.",[1]; [12],96.5%
same,"KF germination rate, 5 days at 25° C.",[1]; [13],95.5%
same,"KF germination rate, 5 days at 25° C.",[1]; [14],97.5%
same,"KF germination rate, 5 days at 25° C.",[1]; [15],100.0%
same,"KF germination rate, 5 days at 25° C.",[1]; [16],97.5%
same,"KF germination rate, 5 days at 25° C.",[1]; [17],96.0%
same,"KF germination rate, 5 days at 25° C.",[1]; [18],96.5%
same,"KF germination rate, 5 days at 25° C.",[1]; [19],99.5%
same,"KF germination rate, 5 days at 25° C.",[1]; [20],92.5%
same,"KF germination rate, 5 days at 25° C.",[1]; [21],96.5%
same,"KF germination rate, 5 days at 25° C.",[1]; [22],96.5%
same,"KF germination rate, 5 days at 25° C.",[1]; [23],96.0%
same,"KF germination rate, 5 days at 25° C.",[1]; [24],95.5%
same,"KF germination rate, 5 days at 25° C.",[1]; [25],98.5%
same,"KF germination rate, 5 days at 25° C.",[1]; [26],99.0%
same,"KF germination rate, 5 days at 25° C.",[1]; [27],97.5%
same,"KF germination rate, 5 days at 25° C.",[1]; [28],98.0%
same,"KF germination rate, 5 days at 25° C.",[1]; [29],97.5%
same,"KF germination rate, 5 days at 25° C.",[1]; [30],94.5%
same,"KF germination rate, 5 days at 25° C.",[1]; [31],95.5%
same,"KF germination rate, 5 days at 25° C.",[1]; [32],96.0%
same,"KF germination rate, 5 days at 25° C.",[1]; [33],95.5%
same,"KF germination rate, 5 days at 25° C.",[1]; [34],97.0%
same,ΔKF,[1]; [5],0.0%
same,ΔKF,[1]; [6],−1.5%
same,ΔKF,[1]; [7],−0.5%
same,ΔKF,[1]; [8],−1.0%
same,ΔKF,[1]; [9],0.0%
same,ΔKF,[1]; [10],1.5%
same,ΔKF,[1]; [11],1.5%
same,ΔKF,[1]; [12],0.0%
same,ΔKF,[1]; [13],−1.0%
same,ΔKF,[1]; [14],1.0%
same,ΔKF,[1]; [15],2.0%
same,ΔKF,[1]; [16],−0.5%
same,ΔKF,[1]; [17],−2.0%
same,ΔKF,[1]; [18],−1.5%
same,ΔKF,[1]; [19],1.5%
same,ΔKF,[1]; [20],−2.0%
same,ΔKF,[1]; [21],2.0%
same,ΔKF,[1]; [22],2.0%
same,ΔKF,[1]; [23],1.5%
same,ΔKF,[1]; [24],1.0%
same,ΔKF,[1]; [25],0.0%
same,ΔKF,[1]; [26],0.5%
same,ΔKF,[1]; [27],−1.0%
same,ΔKF,[1]; [28],−0.5%
same,ΔKF,[1]; [29],−1.0%
same,ΔKF,[1]; [30],0.0%
same,ΔKF,[1]; [31],1.0%
same,ΔKF,[1]; [32],1.5%
same,ΔKF,[1]; [33],1.0%
same,ΔKF,[1]; [34],2.5%
same,ΔKF,[1]; [35],0.3%
same,ΔKF,[1]; [36],0.5%
same,ΔKF,[1]; [37],0.0%
same,ΔKF,[1]; [38],−0.2%
same,ΔKF,[1]; [39],0.8%
same,ΔKF,[1]; [40],−1.0%
same,ΔKF,[1]; [41],0.3%
same,ΔKF,[1]; [42],0.8%
same,ΔKF,[1]; [43],0.3%
same,ΔKF,[1]; [44],0.5%
same,ΔKF,[1]; [45],0.7%
same,ΔKF,[1]; [46],1.0%
same,ΔKF,[1]; [47],−0.5%
same,ΔKF,[1]; [48],−0.7%
same,ΔKF,[1]; [49],0.0%
same,ΔKF,[1]; [50],1.0%
same,ΔKF,[1]; [51],0.3%
same,ΔKF,[1]; [52],−0.2%
same,ΔKF,[1]; [53],−0.2%
same,ΔKF,[1]; [54],2.0%
same,"KF germination rate, 5 days at 25° C.",[1]; [35],96.9%
same,"KF germination rate, 5 days at 25° C.",[1]; [36],97.2%
same,"KF germination rate, 5 days at 25° C.",[1]; [37],96.7%
same,"KF germination rate, 5 days at 25° C.",[1]; [38],96.4%
same,"KF germination rate, 5 days at 25° C.",[1]; [39],97.5%
same,"KF germination rate, 5 days at 25° C.",[1]; [40],95.3%
same,"KF germination rate, 5 days at 25° C.",[1]; [41],96.5%
same,"KF germination rate, 5 days at 25° C.",[1]; [42],97.0%
same,"KF germination rate, 5 days at 25° C.",[1]; [43],96.5%
same,"KF germination rate, 5 days at 25° C.",[1]; [44],96.8%
same,"KF germination rate, 5 days at 25° C.",[1]; [45],98.3%
same,"KF germination rate, 5 days at 25° C.",[1]; [46],98.5%
same,"KF germination rate, 5 days at 25° C.",[1]; [47],97.0%
same,"KF germination rate, 5 days at 25° C.",[1]; [48],96.8%
same,"KF germination rate, 5 days at 25° C.",[1]; [49],97.5%
same,"KF germination rate, 5 days at 25° C.",[1]; [50],97.3%
same,"KF germination rate, 5 days at 25° C.",[1]; [51],96.5%
same,"KF germination rate, 5 days at 25° C.",[1]; [52],96.0%
same,"KF germination rate, 5 days at 25° C.",[1]; [53],96.0%
same,"KF germination rate, 5 days at 25° C.",[1]; [54],98.3%
same,Bitrex concentation 22 days after emergence,"[2]; oilseed rape leaf, Bitrex 0.15 g/unit, repetitions 1-4",11.03 ng/g and 10.65 ng/g and 5.58 ng/g and 7.75 ng/g
same,Bitrex concentation 6 days after emergence,"[2]; oilseed rape leaf, Bitrex 7.5 g/unit, repetitions 1-4",354.65 ng/g and 194.60 ng/g and 266.85 ng/g and 251.41 ng/g
same,Bitrex in leaf tissue after 22 days,"[2]; oilseed rape, all applications 0.15-75 g/unit",still detectable but at a low amount
same,"effect on development of biomass, seed damages and seedling damages",[3],positive effect
same,corvid repellent effect in wheat,[4],only provided a modest improvement
